Biological target: T1, AR (Homo sapiens, UniProt P10275, T878A)
T1 construct: LNCaP cells express an endogenous mutant AR that is found in prostate cancer patients; host or cells: LNCaP
T1 sequence (P10275 1-920 T878A): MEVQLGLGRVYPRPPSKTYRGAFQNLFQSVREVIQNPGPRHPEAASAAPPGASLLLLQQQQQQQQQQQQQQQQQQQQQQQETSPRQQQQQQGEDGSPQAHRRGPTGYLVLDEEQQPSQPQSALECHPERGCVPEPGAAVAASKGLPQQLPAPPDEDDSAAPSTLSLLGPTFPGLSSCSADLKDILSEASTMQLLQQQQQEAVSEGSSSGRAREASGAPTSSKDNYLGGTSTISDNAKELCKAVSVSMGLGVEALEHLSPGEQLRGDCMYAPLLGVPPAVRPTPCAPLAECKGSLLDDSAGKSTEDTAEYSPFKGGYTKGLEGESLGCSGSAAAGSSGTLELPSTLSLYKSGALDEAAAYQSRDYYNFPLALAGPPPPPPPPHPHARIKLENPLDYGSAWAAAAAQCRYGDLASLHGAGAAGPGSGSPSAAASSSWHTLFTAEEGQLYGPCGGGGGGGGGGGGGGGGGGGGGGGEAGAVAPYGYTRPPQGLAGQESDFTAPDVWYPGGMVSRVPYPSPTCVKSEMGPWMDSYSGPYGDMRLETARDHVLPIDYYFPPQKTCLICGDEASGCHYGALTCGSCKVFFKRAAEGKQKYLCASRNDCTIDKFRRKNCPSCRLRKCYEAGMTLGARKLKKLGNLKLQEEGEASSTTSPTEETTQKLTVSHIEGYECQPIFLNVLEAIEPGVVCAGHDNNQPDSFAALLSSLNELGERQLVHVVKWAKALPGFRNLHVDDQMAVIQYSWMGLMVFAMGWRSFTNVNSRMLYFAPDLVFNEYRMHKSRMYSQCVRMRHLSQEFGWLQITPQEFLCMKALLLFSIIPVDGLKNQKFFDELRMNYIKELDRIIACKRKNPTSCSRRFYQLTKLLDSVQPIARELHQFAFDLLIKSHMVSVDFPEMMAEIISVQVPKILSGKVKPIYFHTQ
Experiment: Western blot analysis of AR expression in JC9-treated LNCaP cells over 5 days
Assay type: cell-based
Description: A Western blot method suitable for detecting degradation of the androgen receptor (AR) has been previously described (Su et al., 1999). Briefly, cells (for example, LNCap cells) are harvested either in 2× sodium dodecyl sulfate (SDS) loading buffer or in radioimmunoprecipitation assay (RIPA) lysis buffer (see “Antibodies: A Laboratory Manual”, E. Harlow and D. Lane, Cold Spring Harbor Laboratory, 1988) containing 10 micrograms/milliliter of benzamidine, 10 micrograms/milliliter of trypsin inhibitor, and 1 millimolar of phenylmethylsulfonyl fluoride (PMSF). Total protein (40 micrograms/sample, or as desired) from cell lysate is separated on a SDS-PAGE gel. […] The membrane is rinsed with PBST, and a suitable visualization procedure is used to detect the secondary antibody (for example, horseradish peroxidase can be detected with a colorimetric substrate or by a chemiluminescent substrate such as that provided by the enhanced chemiluminescence (ECL Plus) kit from Amersham). […] Quantification of the protein signals can be carried out by densitometry, using appropriate software (ImageJ software from the National Institutes of Health).
AR is the key factor in regulating prostate cancer cells' response to androgens. […] A color detection method was subsequently employed to examine AR and actin protein signals in the membranes, and the resultant protein signals were quantitated by densitometry. […]

Question: What does the source list for `COc1ccc(C=CC(=O)C=C(O)C=Cc2ccc(OC)c(OC)c2)cc1OC` [JC9, 5-hydroxy-1,7-bis(3,4-dimethoxyphenyl)-1,4,6-heptatrien-3-one]?
Answer: time at which AR reduction was first observed (5 μM JC9, continuous incubation): 2 days; AR level remaining (normalized AR signal, percentage of baseline Day 0) (5 μM JC9, end of 5-day incubation): ~10%

— patent US20060084704A1, “Methods and compositions for enhancing degradation of nuclear receptor transcription factors and uses thereof” (priority 2004, published 2006)
